Some test systems named below: 786-0 renal; MDA-MB-435; UO-31 renal; IGROV1 ovarian; T-47D breast; RPMI-8226 leukemia; COLO 205 colon; CAKI-1 renal; SK-MEL-2 melanoma; SR leukemia.
Holding throughout (test): NCI anticancer screen, dose series, 48 h

Each structure is given as a SMILES string.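 Assay format: 96-well plates, 48-hour exposure. GI50 is the concentration that inhibits growth by half. TGI denotes the concentration required for complete inhibition of growth.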

On to `COc1cc(COC(=O)N(C)[C@@H](Cc2ccccc2)C(=O)O)c([N+](=O)[O-])cc1OC`, for which the TGI in the test on 786-0 renal, in the test with MDA-MB-435, with UO-31 renal, with IGROV1 ovarian, in the test on T-47D breast and in the test with RPMI-8226 leukemia was greater than 100 µM in each case.
Turning to `Clc1cc(Cl)cc(Nc2ccc3c(OCCCN4CCOCC4)cccc3n2)c1`, the GI50 with COLO 205 colon is 1.77 µM; in the test with 786-0 renal, 1.69 µM; with CAKI-1 renal, 7.59 µM; with MDA-MB-435, 1.8 µM; in the test with UO-31 renal, 1.51 µM; with IGROV1 ovarian, 3.9 µM. Further, the values for the GI50 with T-47D breast, with SK-MEL-2 melanoma and in the test with RPMI-8226 leukemia were 4.91 µM, 3.45 µM and 2.8 µM, respectively. For the same compound, the TGI with COLO 205 colon stood at 3.56 µM; in the test with 786-0 renal, 3.22 µM; in the test on CAKI-1 renal, 22.9 µM; with MDA-MB-435, 3.71 µM; in the test on UO-31 renal it was 2.94 µM; in the test with IGROV1 ovarian, 17.6 µM. Moreover, the TGI with T-47D breast came out at 18.2 µM; in the test with SK-MEL-2 melanoma, 9.51 µM; in the test on RPMI-8226 leukemia, 8.33 µM.
Take `COc1cc2ccc(CC(=O)O)cc2cc1OC`: the TGI in the test on COLO 205 colon, with 786-0 renal, with CAKI-1 renal, in the test on SR leukemia, with UO-31 renal and in the test on IGROV1 ovarian was greater than 100 µM throughout. Further, the TGI in the test on SK-MEL-2 melanoma and in the test with RPMI-8226 leukemia was greater than 100 µM in each case.
Consider `C=C1CCC2C(C)(CO)C(O)CCC2(C)C1C/C=C1\C(=O)OCC1O` (centres undefined), for which the TGI with COLO 205 colon is 27.9 µM; with 786-0 renal it was 18.1 µM; in the test on MDA-MB-435 it was 22.9 µM; in the test on SR leukemia, 42.5 µM; in the test on UO-31 renal, greater than 100 µM; with IGROV1 ovarian, 57.4 µM. The TGI with T-47D breast worked out at 74.7 µM; in the test with SK-MEL-2 melanoma it was 30.8 µM; in the test with RPMI-8226 leukemia, 49.9 µM.
Take `Fc1nc(Sc2ncnc3nc[nH]c23)nc(-c2c3ccccc3c3sc4ccccc4n23)n1`: the TGI in the test on COLO 205 colon, in the test on 786-0 renal, with CAKI-1 renal, in the test on MDA-MB-435, with UO-31 renal and in the test with IGROV1 ovarian was greater than 100 µM in each case. For the same compound, the TGI in the test on T-47D breast, in the test with SK-MEL-2 melanoma and in the test on RPMI-8226 leukemia was greater than 100 µM throughout.
Regarding `COc1ccc([C@H]2c3[nH]c4ccccc4c3C[C@H]3C(=O)N(CCCCCCC(=O)NO)CC(=O)N23)cc1`, the GI50 is 2.04 µM in the test on COLO 205 colon; 11 µM in the test with 786-0 renal; 1.68 µM in the test with CAKI-1 renal; 3.32 µM in the test with MDA-MB-435; 1.46 µM with SR leukemia; 1.47 µM with UO-31 renal. Moreover, the GI50 in the test with IGROV1 ovarian is 2.32 µM; in the test with T-47D breast it was 0.952 µM; in the test on SK-MEL-2 melanoma, 2.79 µM. In addition, the TGI with COLO 205 colon is 15 µM; in the test on 786-0 renal, greater than 33.3 µM; in the test with CAKI-1 renal, 13.9 µM; with MDA-MB-435, 15.1 µM; in the test on SR leukemia it was greater than 33.3 µM; in the test with UO-31 renal it was greater than 33.3 µM. Moreover, the values for the TGI in the test with IGROV1 ovarian, with T-47D breast and in the test with SK-MEL-2 melanoma were greater than 33.3 µM, 25.6 µM and greater than 33.3 µM, respectively.
As to `Cc1ccccc1NC(=O)C(=O)CC(=O)c1sc(-n2nc(-c3ccccc3)cc2-c2ccccc2)nc1C`, the TGI in the test on COLO 205 colon, in the test with 786-0 renal, with CAKI-1 renal, with SR leukemia, in the test with UO-31 renal and in the test with IGROV1 ovarian was greater than 100 µM throughout. In addition, the TGI in the test on SK-MEL-2 melanoma and in the test with RPMI-8226 leukemia was greater than 100 µM throughout.
In the case of `CC[C@]1(O)C[C@@H]2CN(CCc3c([nH]c4ccccc34)[C@@](C(=O)OC)(c3cc4c(cc3OC)N(C)[C@H]3[C@@](O)(C(=O)OC)[C@H](OC(=O)CCCBr)[C@]5(CC)C=CCN6CC[C@]43[C@@H]65)C2)C1`, the GI50 was 0.0535 µM with 786-0 renal; less than 0.0206 µM with CAKI-1 renal; less than 0.01 µM in the test on MDA-MB-435; less than 0.01 µM in the test on SR leukemia; 0.196 µM with UO-31 renal; 0.0263 µM in the test on IGROV1 ovarian. The GI50 in the test with SK-MEL-2 melanoma is 0.0331 µM; with RPMI-8226 leukemia it was less than 0.01 µM. For the same compound, the TGI in the test with 786-0 renal is greater than 33.1 µM; with CAKI-1 renal, 2.12 µM; with MDA-MB-435, less than 0.01 µM; in the test on SR leukemia, greater than 100 µM; with UO-31 renal it was 6.55 µM; in the test with IGROV1 ovarian, greater than 100 µM. For the same compound, the TGI is greater than 100 µM in the test with SK-MEL-2 melanoma and 0.492 µM in the test on RPMI-8226 leukemia.
Turning to `COc1cc2c(c(OC)c1OC)-c1ccc(SC)c(=O)cc1C(CC(=O)Oc1ccccc1F)C2` (centres undefined), the TGI is 0.0376 µM in the test on COLO 205 colon; greater than 7.5 µM in the test on 786-0 renal; greater than 7.5 µM in the test on CAKI-1 renal; greater than 7.5 µM with SR leukemia; greater than 7.5 µM in the test on UO-31 renal; greater than 7.5 µM in the test with IGROV1 ovarian. The TGI with SK-MEL-2 melanoma is 0.125 µM; in the test with RPMI-8226 leukemia, greater than 7.5 µM.
On to `Cc1cn([C@H]2CN(O)C[C@@H](CO)O2)c(=O)[nH]c1=O`, for which the TGI in the test with COLO 205 colon, with 786-0 renal, in the test with CAKI-1 renal, in the test on MDA-MB-435, in the test on UO-31 renal and with IGROV1 ovarian was greater than 100 µM each time. Also, the TGI in the test with T-47D breast, in the test on SK-MEL-2 melanoma and with RPMI-8226 leukemia was greater than 100 µM throughout.
For `Cc1cc(N(CCC#N)CCC#N)ccc1/C=C1N=C(/C=C\c2ccccc2)N(c2ccc(C(=O)O)cc2)C\1=O`, the TGI in the test on COLO 205 colon, in the test on 786-0 renal, with CAKI-1 renal, in the test with SR leukemia, in the test with UO-31 renal and in the test on IGROV1 ovarian was greater than 100 µM in each case. Moreover, the TGI with SK-MEL-2 melanoma and in the test on RPMI-8226 leukemia was greater than 100 µM each time.
With `NC(=O)N1N=C2c3ccccc3OC[C@H]2[C@@H]1c1ccccc1`, the TGI is 51.5 µM in the test with COLO 205 colon; greater than 100 µM with 786-0 renal; greater than 100 µM in the test on CAKI-1 renal; 56 µM in the test with SR leukemia; greater than 100 µM in the test with UO-31 renal; greater than 100 µM in the test with IGROV1 ovarian. The values for the TGI with SK-MEL-2 melanoma and in the test on RPMI-8226 leukemia were greater than 100 µM and greater than 89.3 µM, respectively.
On to `N#CC(C#N)=C/C=C/c1ccccc1[N+](=O)[O-]`, for which the TGI in the test on COLO 205 colon, in the test on 786-0 renal, with CAKI-1 renal, with SR leukemia, in the test with UO-31 renal and with IGROV1 ovarian was greater than 10 µM each time. Further, the TGI with T-47D breast, in the test on SK-MEL-2 melanoma and in the test on RPMI-8226 leukemia was greater than 10 µM throughout.

Source of the values: PubChem BioAssay (NCI).
